Measurements reported in BindingDB's records for patent US20240409538 (Impact Therapeutics (Shanghai), 2024).

Target: Ubiquitin carboxyl-terminal hydrolase 1/WD repeat-containing protein 48 (Homo sapiens, UniProt O94782)
Test: Not found

Chain of Ubiquitin carboxyl-terminal hydrolase 1/WD repeat-containing protein 48 (O94782 whole entry): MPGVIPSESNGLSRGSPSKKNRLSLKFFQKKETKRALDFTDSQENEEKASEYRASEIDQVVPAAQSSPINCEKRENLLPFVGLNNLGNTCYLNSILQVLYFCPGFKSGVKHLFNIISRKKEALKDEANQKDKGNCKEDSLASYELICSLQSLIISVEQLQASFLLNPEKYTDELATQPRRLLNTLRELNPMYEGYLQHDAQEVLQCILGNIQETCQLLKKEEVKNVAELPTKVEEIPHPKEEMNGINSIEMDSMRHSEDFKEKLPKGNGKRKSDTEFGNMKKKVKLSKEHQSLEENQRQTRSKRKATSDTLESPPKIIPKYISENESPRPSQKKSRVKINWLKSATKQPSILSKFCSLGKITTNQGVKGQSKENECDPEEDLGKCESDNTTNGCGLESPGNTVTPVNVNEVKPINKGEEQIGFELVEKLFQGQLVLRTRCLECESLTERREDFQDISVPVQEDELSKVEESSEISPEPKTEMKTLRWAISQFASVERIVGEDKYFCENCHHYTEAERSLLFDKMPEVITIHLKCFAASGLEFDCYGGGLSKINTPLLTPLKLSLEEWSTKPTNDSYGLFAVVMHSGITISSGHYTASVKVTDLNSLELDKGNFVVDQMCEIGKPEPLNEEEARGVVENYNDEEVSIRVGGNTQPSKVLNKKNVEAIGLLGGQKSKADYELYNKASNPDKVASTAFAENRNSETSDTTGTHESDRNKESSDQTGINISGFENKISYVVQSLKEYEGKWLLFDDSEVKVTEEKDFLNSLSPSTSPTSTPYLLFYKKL
Chain of Ubiquitin carboxyl-terminal hydrolase 1/WD repeat-containing protein 48 (Q8TAF3 whole entry, further chain): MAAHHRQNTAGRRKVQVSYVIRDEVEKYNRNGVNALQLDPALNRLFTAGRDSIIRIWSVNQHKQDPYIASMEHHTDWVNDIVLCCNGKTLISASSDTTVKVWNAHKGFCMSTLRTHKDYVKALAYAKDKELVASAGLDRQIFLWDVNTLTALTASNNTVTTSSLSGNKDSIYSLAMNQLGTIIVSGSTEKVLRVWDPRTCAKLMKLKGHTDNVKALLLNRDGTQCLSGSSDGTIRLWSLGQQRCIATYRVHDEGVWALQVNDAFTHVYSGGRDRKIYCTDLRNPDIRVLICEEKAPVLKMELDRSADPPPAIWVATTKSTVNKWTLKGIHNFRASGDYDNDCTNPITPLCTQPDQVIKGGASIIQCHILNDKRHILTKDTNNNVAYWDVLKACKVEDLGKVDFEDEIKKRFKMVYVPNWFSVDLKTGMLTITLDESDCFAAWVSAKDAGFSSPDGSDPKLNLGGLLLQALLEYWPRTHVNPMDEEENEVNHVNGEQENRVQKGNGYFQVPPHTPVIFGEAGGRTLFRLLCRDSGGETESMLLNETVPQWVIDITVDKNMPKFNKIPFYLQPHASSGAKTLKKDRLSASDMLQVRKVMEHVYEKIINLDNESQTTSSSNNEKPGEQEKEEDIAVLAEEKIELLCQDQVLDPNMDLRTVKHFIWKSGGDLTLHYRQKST

SMILES: COc1ncnc(OC)c1-c1nc2c(Cc3ccc(-c4nc(C(F)(F)F)cn4C)cc3)cccn2n1 [US20240409538, Example 27]
- IC50: 77.5 nM
